Experiments:
[1] = xn = mol fraction of the nth substance listed; conditions: 100 kPa, Liquid, Vibrating tube method
[2] = excess molar enthalpy (molar enthalpy of mixing); xn = mol fraction of the nth substance listed; conditions: 100 kPa, Liquid, Calvet calorimetry

CCCC[N+](C)(C)C.O=S(=O)([N-]S(=O)(=O)C(F)(F)F)C(F)(F)F [butyltrimethylammonium bis(trifluoromethylsulfonyl)imide] + CCO
Conditions	excess molar enthalpy [kcal/mol]	mass density [kg/m3]
[1], 318.15 K, x2 = 0.5031	–	1271
[1], 318.15 K, x2 = 0.6487	–	1209
[1], 318.15 K, x2 = 0.7823	–	1118.6
[1], 318.15 K, x2 = 0.8561	–	1043.1
[1], 318.15 K, x2 = 0.8763	–	1017.4
[1], 318.15 K, x2 = 0.9039	–	977.1
[1], 318.15 K, x2 = 0.95	–	893.8
[1], 318.15 K, x2 = 0.9745	–	838
[1], 323.15 K, x2 = 0	–	1370.9
[1], 323.15 K, x2 = 0.1284	–	1353.1
[1], 323.15 K, x2 = 0.2585	–	1330.4
[1], 323.15 K, x2 = 0.3814	–	1302.6
[1], 323.15 K, x2 = 0.5031	–	1266.5
[1], 323.15 K, x2 = 0.6487	–	1204.4
[1], 323.15 K, x2 = 0.7823	–	1114
[1], 323.15 K, x2 = 0.8561	–	1038.4
[1], 323.15 K, x2 = 0.8763	–	1012.7
[1], 323.15 K, x2 = 0.9039	–	972.4
[1], 323.15 K, x2 = 0.95	–	889.2
[1], 323.15 K, x2 = 0.9745	–	833.4
[1], 328.15 K, x2 = 0	–	1366.6
[1], 328.15 K, x2 = 0.1284	–	1348.7
[1], 328.15 K, x2 = 0.2585	–	1325.9
[1], 328.15 K, x2 = 0.3814	–	1298.1
[1], 328.15 K, x2 = 0.5031	–	1261.9
[1], 328.15 K, x2 = 0.6487	–	1199.7
[1], 328.15 K, x2 = 0.7823	–	1109.2
[1], 328.15 K, x2 = 0.8561	–	1033.7
[1], 328.15 K, x2 = 0.8763	–	1008
[1], 328.15 K, x2 = 0.9039	–	967.7
[1], 328.15 K, x2 = 0.95	–	884.5
[1], 328.15 K, x2 = 0.9745	–	828.8
[1], 333.15 K, x2 = 0	–	1362.3
[1], 333.15 K, x2 = 0.1284	–	1344.3
[1], 333.15 K, x2 = 0.2585	–	1321.5
[1], 333.15 K, x2 = 0.3814	–	1293.7
[1], 333.15 K, x2 = 0.5031	–	1257.4
[1], 333.15 K, x2 = 0.6487	–	1195.1
[1], 333.15 K, x2 = 0.7823	–	1104.5
[1], 333.15 K, x2 = 0.8561	–	1028.9
[1], 333.15 K, x2 = 0.8763	–	1003.3
[1], 333.15 K, x2 = 0.9039	–	963
[1], 333.15 K, x2 = 0.95	–	879.8
[1], 333.15 K, x2 = 0.9745	–	824.2
[2], 308.15 K, x2 = 0.1229	0.203	–
[2], 308.15 K, x2 = 0.2546	0.389	–
[2], 308.15 K, x2 = 0.2623	0.396	–
[2], 308.15 K, x2 = 0.2752	0.411	–
[2], 308.15 K, x2 = 0.3943	0.51	–
[2], 308.15 K, x2 = 0.5084	0.559	–
[2], 308.15 K, x2 = 0.5133	0.551	–
[2], 308.15 K, x2 = 0.5408	0.557	–
[2], 308.15 K, x2 = 0.6267	0.544	–
[2], 308.15 K, x2 = 0.7252	0.509	–
[2], 308.15 K, x2 = 0.7354	0.503	–
[2], 308.15 K, x2 = 0.7659	0.467	–
[2], 308.15 K, x2 = 0.8645	0.352	–
[2], 313.15 K, x2 = 0.113	0.187	–
[2], 313.15 K, x2 = 0.2393	0.374	–
[2], 313.15 K, x2 = 0.2549	0.385	–
[2], 313.15 K, x2 = 0.3933	0.518	–
[2], 313.15 K, x2 = 0.4936	0.569	–
[2], 313.15 K, x2 = 0.4959	0.567	–
[2], 313.15 K, x2 = 0.499	0.568	–
[2], 313.15 K, x2 = 0.6245	0.564	–
[2], 313.15 K, x2 = 0.7406	0.507	–
[2], 313.15 K, x2 = 0.8666	0.369	–
[2], 323.15 K, x2 = 0.1187	0.185	–
[2], 323.15 K, x2 = 0.2569	0.406	–
[2], 323.15 K, x2 = 0.2694	0.422	–
[2], 323.15 K, x2 = 0.3969	0.538	–
[2], 323.15 K, x2 = 0.527	0.6	–
[2], 323.15 K, x2 = 0.5431	0.611	–
[2], 323.15 K, x2 = 0.6214	0.598	–
[2], 323.15 K, x2 = 0.7499	0.548	–
[2], 323.15 K, x2 = 0.8707	0.413	–

From the NIST ThermoML archive (doi:10.1021/je500696p)
